Read-outs that look alike come from different tables or passages of the source.
Key:
[1] = test system: SIRPα signalling induced by A549 cells; assay: Assay B: SIRPα signalling assay using A549 cells; type: cell-based; settings: Homo sapiens, read-out: Inhibition of SIRPα signalling induced by A549 cells: IC50
Protocol: (§1) Two cell types are independently used: the Raji cell line (lymphoblast-like human cell line derived from B lymphocytes from a Burkitt's lymphoma patient in 1963) and A549 cells (adenocarcinomic human alveolar basal epithelial cells).
(§2) Test compounds were dissolved in 100% DMSO and serially diluted into a white 384-well microtiter cell culture plate (PerkinElmer #60076780 in case of Raji assay; PDL-coated plates Greiner #781945 in case of A549 assay). 5000 Raji cells (ATCC #CC86) or 5000 A549 cells (ATCC #CCL-185) in Assay Complete Cell Plating reagent 30 (DiscoverX 93-0563R30B) were added per well. The assay plate was incubated for 48 h at 37° C., 95% humidity and 5% CO2. 15000 reporter cells (Jurkat PathHunter SIRPαV1, DiscoverX #93-1135C19) were added to each well, and the plate was incubated for 5 h at 37° C., 95% humidity and 5% CO2. Bioassay reagent 1 of the PathHunter Bioassay detection kit (DiscoverX 93-0001) was added to each well of the plate using a multichannel pipette followed by a 15 min incubation at room temperature. Afterwards bioassay reagent 2 was added followed by 60 min incubation at room temperature (incubation in the dark). The analysis of the data was performed using the luminescence signal generated by beta-galactosidase in the PathHunter reporter cell line. The luminescence measurement was done using a Pherastar Multi-Mode Reader. Dose-response curves & IC50 data were calculated with 4-parameter sigmoidal dose response formula.

[2] = test system: SIRPα signalling induced by Raji cells; assay: Assay B: SIRPα signalling assay using Raji cells; type: cell-based; settings: Homo sapiens, read-out: Inhibition of SIRPα signalling induced by Raji cells: IC50
Protocol: as §1, §2

QPCTL = target: T1, QPCTL (Homo sapiens, UniProt Q9NXS2); assay: Assay A: biochemical QPCTL activity assay (MALDI-TOF MS, CD47 peptide substrate); settings: 0.5 nM enzyme, 10 μM CD47 peptide substrate; read-out: Inhibition of QPCTL: IC50
T1 construct: made in house
Protocol: (§3) QPCT or QPCTL dependent conversion of N-terminal glutamine to pyroglutamate of CD47 was monitored via MALDI-TOF MS. Test compounds were dissolved in 100% DMSO and serially diluted into clear 1,536-well microtiter plates. Enzymatic reactions were set up in assay buffer containing 20 mM Tris pH 7.5, 0.1 mM TCEP, 0.01% BSA, and 0.001% Tween20. […] The plates were incubated for 10 min in a humidified incubator at 24° C. Subsequently, 2.5 μL of CD47 peptide substrate surrogate (^19[…]^33) was added to each well (final concentration: 10 μM for QPCTL/20 μM for QPCT). The plates were mixed for 30 sec at 1,000 rpm and subsequently incubated for 40 min in a humidified incubator at 24° C. […] The plates were sealed with an adhesive foil, mixed for 30 s at 1,000 rpm and stored at room temperature until preparation of the MALDI target plates. […] QPCT or QPCTL activity was monitored by calculating the ratio between product and internal standard signals followed by normalization to high (100% activity) and low (0% activity) controls. Determination of compound potencies was obtained by fitting the dose-response data to a four-parameter logistical equation.

QPCT = target: T2, QPCT (Homo sapiens, UniProt Q16769); assay: Assay A: biochemical QPCT activity assay (MALDI-TOF MS, CD47 peptide substrate); settings: 0.5 nM enzyme, 20 μM CD47 peptide substrate; read-out: Inhibition of QPCT: IC50
T2 construct: purchased Origine (OriGene) TP700028
Protocol: as §3

[3] = Assay C: permeability in CACO-2 cells; type: in vitro ADME; settings: human, pH 7.2; for efflux ratio at 2 h: Caco-2, permeability B-A/permeability A-B; for Papp A→B at 2 h: Caco-2, apical to basolateral
Protocol: Caco-2 cells (1-2×10^5 cells/1 cm^2 area) are seeded on filter inserts (Costar transwell polycarbonate or PET filters, 0.4 µm pore size) and cultured (DMEM) for 10 to 25 days. Compounds are dissolved in appropriate solvent (like DMSO, 1-20 mM stock solutions). […] The transport solution (TL) is applied to the apical or basolateral donor side for measuring A-B or B-A permeability (3 filter replicates), respectively. Samples are collected at the start and end of experiment from the donor and at various time intervals for up to 2 hours also from the receiver side for concentration measurement by HPLC-MS/MS or scintillation counting. Sampled receiver volumes are replaced with fresh receiver solution.
Efflux ratio (ER)=permeability B-A/permeability A-B

[4] = A549 cells, 48 h compound incubation, PathHunter SIRPαV1 reporter cells
[5] = Raji cells, 48 h compound incubation, PathHunter SIRPαV1 reporter cells

T1 sequence (Q9NXS2 whole entry): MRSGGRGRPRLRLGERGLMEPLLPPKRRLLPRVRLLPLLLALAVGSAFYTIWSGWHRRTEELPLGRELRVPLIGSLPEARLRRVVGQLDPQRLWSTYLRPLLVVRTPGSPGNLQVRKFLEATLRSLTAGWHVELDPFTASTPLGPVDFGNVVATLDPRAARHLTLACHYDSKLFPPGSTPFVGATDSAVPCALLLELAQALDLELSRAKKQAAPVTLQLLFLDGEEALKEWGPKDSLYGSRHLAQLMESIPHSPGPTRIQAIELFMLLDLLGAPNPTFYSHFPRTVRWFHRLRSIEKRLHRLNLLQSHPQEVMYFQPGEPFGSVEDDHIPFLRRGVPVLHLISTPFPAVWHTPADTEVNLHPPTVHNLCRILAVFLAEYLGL
T2 sequence (Q16769 29-361): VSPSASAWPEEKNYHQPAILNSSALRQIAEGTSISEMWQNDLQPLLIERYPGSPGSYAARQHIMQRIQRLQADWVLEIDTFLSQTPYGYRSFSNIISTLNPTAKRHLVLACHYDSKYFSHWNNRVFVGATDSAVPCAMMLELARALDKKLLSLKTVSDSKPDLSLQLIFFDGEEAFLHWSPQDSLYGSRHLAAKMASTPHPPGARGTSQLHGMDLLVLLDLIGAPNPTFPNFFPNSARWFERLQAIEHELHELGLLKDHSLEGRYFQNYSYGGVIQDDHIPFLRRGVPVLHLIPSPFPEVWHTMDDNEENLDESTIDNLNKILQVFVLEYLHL

SMILES | IC50 [1, 4] | IC50 [2, 5] | IC50 (QPCTL) | IC50 (QPCT) | efflux ratio at 2 h [3] | Papp A→B at 2 h [3] | IC50 ([1]; A549, 48 h) | IC50 ([2]; Raji, 48 h)
Cn1cnnc1[C@@H]1CCN(c2c(C#N)cc(C(F)(F)F)nc2-c2ccc(F)nc2)[C@@H](C2CC2)C1 (racemic) [Example 2, (rac)-3-[trans-2-cyclopropyl-4-(4-methyl-4H-1,2,4-triazol-3-yl)piperidin-1-yl]-6′-fluoro-6-(trifluoromethyl)-[2,3′-bipyridine]-4-carbonitrile] | 41 nM | 66 nM | 2 nM | 2 nM | 6.1 | 13 ×10⁻⁶ cm/s |  | 
Cn1cnnc1[C@@H]1CCN(c2c(C#N)cc(C(F)(F)F)nc2-c2cnc3nn(C(C)(C)C)cc3c2)[C@@H](C2CC2)C1 (racemic) [Example 3] | 11 nM | 11 nM | 1 nM | 1 nM | 39.1 | 1.1 ×10⁻⁶ cm/s |  | 
Cn1cnnc1[C@@H]1CCN(c2c(C#N)cc(C(F)(F)F)nc2-c2ccc(F)nc2)[C@@H](C2CC2)C1 [Example 1, 3-[(2R,4R)-2-cyclopropyl-4-(4-methyl-4H-1,2,4-triazol-3-yl)piperidin-1-yl]-6′-fluoro-6-(trifluoromethyl)-[2,3′-bipyridine]-4-carbonitrile] | 27 nM | 27 nM | 1 nM | 2 nM | 4.4 | 17 ×10⁻⁶ cm/s |  | 
Cc1cnnn1C1CCN(c2ncccc2-c2ccc(F)nc2)CC1 [Example 3] | 921 nM | 2740 nM | 52 nM | 482 nM | 0.8 | 93 ×10⁻⁶ cm/s |  | 
C[C@H]1C[C@H](c2nncn2C)CCN1c1c(C#N)cc(C(F)(F)F)nc1-c1ccc(F)nc1 [Example 4, 6′-fluoro-3-[(2S,4R)-2-methyl-4-(4-methyl-4H-1,2,4-triazol-3-yl)piperidin-1-yl]-6-(trifluoromethyl)-[2,3′-bipyridine]-4-carbonitrile] |  | 925 nM | 6 nM | 74 nM | 4.6 | 15 ×10⁻⁶ cm/s |  | 
C[C@H]1C[C@H](c2nncn2C)CCN1c1c(C#N)ccnc1-c1ccc(F)nc1 [Example 5, 6′-fluoro-3-[(2S,4R)-2-methyl-4-(4-methyl-4H-1,2,4-triazol-3-yl)piperidin-1-yl]-[2,3′-bipyridine]-4-carbonitrile] | 57 nM | 48 nM | 1 nM | 2 nM | 5 | 3.6 ×10⁻⁶ cm/s |  | 
C[C@H]1C[C@H](c2nncn2C)CCN1c1c(C#N)ccnc1-c1ccnnc1 [Example 6, 3-[(2S,4R)-2-methyl-4-(4-methyl-4H-1,2,4-triazol-3-yl)piperidin-1-yl]-2-(pyridazin-4-yl)pyridine-4-carbonitrile] | 551 nM | 540 nM | 2 nM | 3 nM | 8.4 | 0.2 ×10⁻⁶ cm/s |  | 
Cn1cnnc1[C@@H]1CCN(c2c(C#N)cc(C(F)(F)F)nc2-c2cnc3nn(C(C)(C)C)cc3c2)[C@H](C2CC2)C1 [Example 7, 2-{2-tert-butyl-2H-pyrazolo[3,4-b]pyridin-5-yl}-3-[(2S,4R)-2-cyclopropyl-4-(4-methyl-4H-1,2,4-triazol-3-yl)piperidin-1-yl]-6-(trifluoromethyl)pyridine-4-carbonitrile] | 12 nM | 9 nM | 1 nM | 1 nM | 23.5 | 2 ×10⁻⁶ cm/s |  | 
Cn1cnnc1[C@@H]1CCN(c2c(C#N)cc(C(F)(F)F)nc2-c2ccc(F)nc2)[C@H](C2CC2)C1 [Example 8] | 47 nM | 47 nM | 1 nM | 6 nM | 3.3 | 22 ×10⁻⁶ cm/s |  | 
CC[C@@H]1C[C@H](c2nncn2C)CCN1c1c(C#N)cc(C(F)(F)F)nc1-c1ccc(F)nc1 [Example 9] | 109 nM | 325 nM | 18 nM | 50 nM | 3.8 | 22 ×10⁻⁶ cm/s |  | 
C[C@@H]1C[C@H](c2nncn2C)CCN1c1c(C#N)cc(C(F)(F)F)nc1-c1ccc(F)nc1 [Example 10, 6′-fluoro-3-[(2R,4R)-2-methyl-4-(4-methyl-4H-1,2,4-triazol-3-yl)piperidin-1-yl]-6-(trifluoromethyl)-[2,3′-bipyridine]-4-carbonitrile] | 111 nM | 1100 nM | 10 nM | 23 nM | 5.8 | 7.8 ×10⁻⁶ cm/s |  | 
Cn1cnnc1C1CCN(c2ncccc2-c2ccc(F)nc2)CC1 [SEN177, reference compound] |  |  |  |  |  |  | 214 nM | 1360 nM

Second part, led by results:

IC50 [1, 4] | IC50 [2, 5] | IC50 (QPCTL) | IC50 (QPCT) | efflux ratio at 2 h [3] | Papp A→B at 2 h [3] | SMILES | IC50 ([1]; A549, 48 h) | IC50 ([2]; Raji, 48 h)
 | 89 nM | 3 nM | 27 nM |  |  | C[C@@H]1C[C@H](c2nncn2C)CCN1c1c(C#N)ccnc1-c1ccc(F)nc1 (racemic) [Example 11] |  | 
86 nM | 246 nM | 3 nM | 13 nM | 10.4 | 5.1 ×10⁻⁶ cm/s | Cn1cnnc1C1CCN(c2c(C#N)cc(C(F)(F)F)nc2-c2ccc(F)nc2)C2(CC2)C1 (racemic) [Example 17] |  | 
236 nM | 301 nM | 6 nM | 14 nM | 2.4 | 22 ×10⁻⁶ cm/s | C[C@@H]1C[C@](F)(c2nncn2C)CCN1c1c(C#N)ccnc1-c1ccc(F)nc1 [Example 13] |  | 
232 nM | 621 nM | 16 nM | 24 nM | 1.2 | 58 ×10⁻⁶ cm/s | C[C@@H]1C[C@](F)(c2nncn2C)CCN1c1c(C#N)cc(C(F)(F)F)nc1-c1ccc(F)nc1 [Example 14] |  | 
486 nM | 837 nM | 14 nM | 24 nM | 9.4 | 3.3 ×10⁻⁶ cm/s | C[C@@H]1C[C@](F)(c2nncn2C)CCN1c1c(C#N)cc(C(F)(F)F)nc1-c1ccnnc1 [Example 15] |  | 
74 nM | 124 nM | 7 nM | 5 nM | 7.1 | 9.2 ×10⁻⁶ cm/s | C[C@@H]1C[C@](F)(c2nncn2C)CCN1c1c(C#N)cc(C(F)(F)F)nc1-c1cnc2nn(C(C)(C)C)cc2c1 [Example 16] |  | 
